We go through one compound from US12611387B2, “Compound and composition for inducing neuroprotection” (REST THERAPEUTICS, priority 2020, dated 2026).

Experiment [1] has as its system viable neurons in the CA1 area of the hippocampus. The experiment in a line: Quantification of viable neurons in area CA1 (cresyl violet). Format: in vivo. The note with it: 0.3 mg/Kg i.p., oligomer-intoxicated mice (not shown). The protocol:
The neuroprotective effect of the compounds, i.e. the ability thereof to protect cells from Aβ25-35 oligomer neurotoxicity and neurodegeneration, is also tested (FIG. 10). The test compounds are thus administered on the same day as the injection of the Aβ25-35 oligomers and are continued to be administered on a daily basis up to day 7 after the injection of the oligomers, at which time the mice are subjected to the YMT, PAT, MWT or ORT. The brain's anatomy is analysed and neuronal cells are counted by immunohistochemistry on mice sacrificed at D13. The biochemical analyses for the quantification of markers of oxidative stress and apoptosis were carried out at D16 on a group of mice that had been subjected to the WMT (FIG. 10). […]
In Alzheimer's patients, a decrease in neurons has been reported in the CA1 region (and to a lesser extent in the CA3 region). […] In order to quantify viable neurons in the CA1 region of the mouse hippocampus, the corresponding sections were stained with cresyl violet (0.12%, Sigma-Aldrich), dehydrated with ethanol, treated with xylene and mounted with a mounting medium (Mountex medium, BDH Laboratory Supplies) and dried at 24° C. at ambient temperature. The images were recorded and analysed (Nanozoomer virtual microscopy system, Hamamatsu, Massy, France). […]

The subject of experiment [2] is Aβ25-35 oligomer-intoxicated mice. The experiment in a line: Object recognition test, symptomatic treatment. Format: in vivo. The note with it: symptomatic design (not shown). The protocol:
The test compounds were tested for their ability to decrease the cognitive symptoms of Aβ25-35 oligomer-induced neurodegeneration, i.e. their ability to provide symptomatic anti-amnestic treatment (FIGS. 1A and 1B). In brief, to test the symptomatic effect of the test compounds, they were administered 8 days after the icy injection of the Aβ25-35 oligomers, 30 minutes before the YMT and PAT memory tests were conducted or 30 minutes before the test, but after the training session, in the case of the MWT or ORT (FIG. 1A). The Hamlet Test® (FIG. 1B) involves a 2-week training session (4 hr/day) followed by a test (max. 10 min) under water deprivation conditions and under normal conditions; the Aβ25-35 peptide is injected after this first test. After one week, the compounds are administered and a second test under water deprivation conditions and under normal conditions is performed 30 min after injection. […]
This test is used to assess recognition memory abilities (Rodriguez Cruz et al., 2017; Maurice et al., 2019). […] The exploratory behaviour, activity and position of the animal's nose were recorded for 10 minutes (Nosetrack® software, Viewpoint, Lissieu, France). The number of contacts with the objects and the duration thereof were measured. […] The exploratory behaviour of each mouse was then also recorded for 10 minutes. […]
An exploration index was calculated using to the following formula: […]

Structures are written as SMILES.

As for `NC12CC3CC(C1)CC(CCF)(C3)C2` [FENM, 3-(2-fluoroethyl)adamantan-1-amine], in experiment [1], the “number of viable neurons in the CA1 area” value is listed as “maintained the number of viable neurons in the CA1 area of the hippocampus” and the “thickness of the CA1 area” value was “counteracted the increase in thickness of this area”. Besides, in experiment [2], the “anti-amnestic effect in object recognition” value is “confirmed”.
